Results reported in PubChem BioAssay AID330 (DTP/NCI, 2004).
“And” between values parts separate entries of the source, which are not always exact repeats. Equal values may be shown once. Toxic doses and inconclusive results are not listed.

Test system: P388 leukemia ip, CD2F1 mice, survival T/C
Test: NCI In Vivo Anticancer Drug Screen. Data for tumor model P388 Leukemia (intraperitoneal) in CD2F1 (CDF1) mice
Conditions: endpoint: median survival time, higher = longer survival
Outline: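 Mice carrying the transplanted tumor received test compound or vehicle. Survival was recorded in each group, and the value is the treated-group measurement divided by that of the vehicle-treated control group.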

[1] = dose: 50.0 mg/kg/injection, schedule: Q04DX003 (ip), vehicle: saline with Tween-80
[2] = dose: 400.0 mg/kg/injection, schedule: Q04DX003 (ip), vehicle: saline with Tween-80
[3] = dose: 50.0 mg/kg/injection, schedule: Q01DX005 (ip), vehicle: Klucel (hydroxypropylcellulose) (HPC)
[4] = dose: 100.0 mg/kg/injection, schedule: Q01DX005 (ip), vehicle: Klucel (hydroxypropylcellulose) (HPC)
[5] = dose: 200.0 mg/kg/injection, schedule: Q01DX005 (ip), vehicle: Klucel (hydroxypropylcellulose) (HPC)
[6] = dose: 50.0 mg/kg/injection, schedule: Q01DX005 (ip), vehicle: saline
[7] = dose: 100.0 mg/kg/injection, schedule: Q01DX005 (ip), vehicle: saline
[8] = dose: 200.0 mg/kg/injection, schedule: Q01DX005 (ip), vehicle: saline
[9] = dose: 50.0 mg/kg/injection, schedule: Q01DX005 (ip), vehicle: saline with Tween-80
[10] = dose: 100.0 mg/kg/injection, schedule: Q01DX005 (ip), vehicle: saline with Tween-80

CCCCn1cnc2c(=S)nc(N)[nH]c21
T/C (dose: 25.0 mg/kg/injection, schedule: Q04DX003 (ip), vehicle: saline with Tween-80): 109 % of control | T/C [1]: 118 % of control | T/C [2]: 90 % of control

O=C1C=C(N2CC2)C(=O)C(N2CC2)=C1N1CC1
T/C (dose: 0.02 mg/kg/injection, schedule: Q01DX005 (ip), vehicle: saline): 155 % of control | T/C (dose: 0.04 mg/kg/injection, schedule: Q01DX005 (ip), vehicle: saline): 157 % of control and 158 % of control and 175 % of control | T/C (dose: 0.08 mg/kg/injection, schedule: Q01DX005 (ip), vehicle: saline): 191 % of control and 194 % of control and 214 % of control | T/C (dose: 0.16 mg/kg/injection, schedule: Q01DX005 (ip), vehicle: saline): 215 % of control and 226 % of control and 287 % of control | T/C (dose: 0.32 mg/kg/injection, schedule: Q01DX005 (ip), vehicle: saline): 111 % of control

COc1ccc(CCNC(=O)c2sc3ccccc3c2Cl)cc1OC
T/C [3]: 88 % of control | T/C [4]: 91 % of control | T/C [5]: 99 % of control

CCCCCCC[CH2][Sn]([CH2]C)([CH2]C)[O]C(C)=O
T/C (dose: 0.25 mg/kg/injection, schedule: Q01DX009 (ip), vehicle: saline with Tween-80): 122 % of control

CN1CCCC1CN1CCCC1 (stereo not given)
T/C [6]: 107 % of control | T/C [7]: 102 % of control | T/C [8]: 98 % of control

CC(N)C(=O)OCN1C(=O)C2C3C=CC(C2C1=O)C1C2C(=O)N(COC(=O)C(C)N)C(=O)C2C31 (stereo not given)
T/C (dose: 25.0 mg/kg/injection, schedule: Q01DX009 (ip), vehicle: water): 109 % of control and 112 % of control | T/C (dose: 50.0 mg/kg/injection, schedule: Q01DX009 (ip), vehicle: water): 108 % of control | T/C (dose: 100.0 mg/kg/injection, schedule: Q01DX009 (ip), vehicle: water): 178 % of control and 193 % of control

O=c1[nH]c(=S)[nH]nc1/C=C/c1cccc(I)c1
T/C (dose: 12.5 mg/kg/injection, schedule: Q04DX002 (ip), vehicle: saline): 100 % of control | T/C (dose: 25.0 mg/kg/injection, schedule: Q04DX002 (ip), vehicle: saline): 100 % of control | T/C (dose: 50.0 mg/kg/injection, schedule: Q04DX002 (ip), vehicle: saline): 100 % of control | T/C (dose: 200.0 mg/kg/injection, schedule: Q04DX002 (ip), vehicle: saline): 106 % of control

C/C=C/C(=O)Oc1ccccc1/C=C/C(=O)CCCCCC
T/C [9]: 92 % of control | T/C [10]: 98 % of control | T/C (dose: 200.0 mg/kg/injection, schedule: Q01DX005 (ip), vehicle: saline with Tween-80): 100 % of control

CCCCNC(=O)C(N)CON (stereo not given)
T/C [6]: 106 % of control | T/C [7]: 113 % of control | T/C [8]: 106 % of control

O=C1NC(CO)C(=O)N2CCCC12 (stereo not given)
T/C (dose: 12.5 mg/kg/injection, schedule: Q01DX009 (ip), vehicle: saline): 100 % of control | T/C (dose: 25.0 mg/kg/injection, schedule: Q01DX009 (ip), vehicle: saline): 99 % of control | T/C (dose: 50.0 mg/kg/injection, schedule: Q01DX009 (ip), vehicle: saline): 99 % of control

O=c1c2cccnc2oc2c(Cl)cc(-c3nn[nH]n3)cc12
T/C [3]: 97 % of control | T/C [4]: 111 % of control | T/C [5]: 97 % of control

CC1=CC[C@H]2C(=O)N(CCN(C)C)C(=O)[C@H]2C1
T/C [6]: 100 % of control | T/C [7]: 100 % of control | T/C [8]: 98 % of control

CC1=NN(C(=O)c2ccncc2)C(=O)C1N=Nc1ccc(-c2ccc(N)cc2)cc1 (stereo not given)
T/C (dose: 50.0 mg/kg/injection, schedule: Q01DX009 (ip), vehicle: saline with Tween-80): 97 % of control | T/C (dose: 100.0 mg/kg/injection, schedule: Q01DX009 (ip), vehicle: saline with Tween-80): 98 % of control | T/C (dose: 200.0 mg/kg/injection, schedule: Q01DX009 (ip), vehicle: saline with Tween-80): 96 % of control

CN(C)c1ccc(/C=N/NC(N)=S)nc1
T/C [1]: 150 % of control

COc1ccc(-c2cc3c(c4cc(OC)ccc24)C(=O)OC3=O)cc1
T/C (dose: 60.0 mg/kg/injection, schedule: Q01DX005 (ip), vehicle: saline with Tween-80): 93 % of control | T/C (dose: 120.0 mg/kg/injection, schedule: Q01DX005 (ip), vehicle: saline with Tween-80): 97 % of control | T/C (dose: 240.0 mg/kg/injection, schedule: Q01DX005 (ip), vehicle: saline with Tween-80): 98 % of control

CC(C)C(C/C(=N\Nc1ccc([N+](=O)[O-])cc1[N+](=O)[O-])C1CC1)C(=O)O (stereo not given)
T/C (dose: 25.0 mg/kg/injection, schedule: Q01DX005 (ip), vehicle: saline with Tween-80): 105 % of control | T/C [9]: 96 % of control | T/C [10]: 89 % of control

CNc1nc(N)nc(Nc2ccc(I)cc2)c1N=O
T/C (dose: 100.0 mg/kg/injection, schedule: Q04DX003 (ip), vehicle: saline with Tween-80): 109 % of control | T/C (dose: 200.0 mg/kg/injection, schedule: Q04DX003 (ip), vehicle: saline with Tween-80): 109 % of control | T/C [2]: 109 % of control
